Assay results taken from the supplement of paper PMC11962398.

Columns and labels:
BI-2493 [1] = compound: T1, C[C@H]1CNCCN1c1nccc(-c2noc3c2CCC[C@@]32CCCc3sc(N)c(C#N)c32)n1 [BI-2493]; conditions: 5 days
Experimental: (§1)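 PRISM pooled barcoded cancer cell line viability screen (Broad Institute) with BI-2493 at 8 doses in threefold dilutions from 0.00457 to 10 µmol/L, 5-day treatment; curves fitted per cell line. IC50 is undefined (placeholder) for resistant lines. AUC is capped at 1, and sensitivity is reported as 1 − AUC.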

BI-2493 [2] = compound: T1, BI-2493; assay: 1 - AUC of viability dose-response curve (sensitivity) (fraction); higher = more sensitive; conditions: 5 days
Experimental: as §1

| Test System | IC50 of cell viability (BI-2493 [1]) [µM] | 1 - AUC of viability dose-response curve (BI-2493 [2]) |
| --- | --- | --- |
| 8MGBA_CENTRAL_NERVOUS_SYSTEM | 6.11 | 0.0867 |
| 22RV1_PROSTATE | 5.65 | 0.111 |
| 42MGBA_CENTRAL_NERVOUS_SYSTEM | > 10 | 0.073 |
| 93T449_SOFT_TISSUE | 9.31 | 0.0121 |
| 94T778_SOFT_TISSUE | 5.6 | 0.112 |
| 143B_BONE | 8.98 | 0.0198 |
| 253JBV_URINARY_TRACT | 6.75 | 0.0713 |
| 253J_URINARY_TRACT | 4.76 | 0.0834 |
| 639V_URINARY_TRACT | > 10 | 0.116 |
| 647V_URINARY_TRACT | 7.05 | 0.0938 |
| 697_HAEMATOPOIETIC_AND_LYMPHOID_TISSUE | 8.3 | 0.0309 |
| 769P_KIDNEY | 6.88 | 0.0662 |
| 786O_KIDNEY | 2.69 | 0.241 |
| 921_UVEA | 4.34 | 0.13 |
| 1618K_TESTIS | 2.47 | 0.206 |
| 1777NRPMET_TESTIS | 9.43 | 0.0116 |
| 5637_URINARY_TRACT | 5.2 | 0.225 |
| 8305C_THYROID | 9.71 | 0.00549 |
| 8505C_THYROID | 9.69 | 0.00728 |
| 9505BIK_PANCREAS | 1.57 | 0.321 |
| 2313287_STOMACH | 1.34 | 0.233 |
| A3KAW_HAEMATOPOIETIC_AND_LYMPHOID_TISSUE | 3.54 | 0.191 |
| A101D_SKIN | 8.09 | 0.0656 |
| A172_CENTRAL_NERVOUS_SYSTEM | 4.33 | 0.178 |

| Test System | IC50 of cell viability (BI-2493 [1]) [µM] | 1 - AUC of viability dose-response curve (BI-2493 [2]) |
| --- | --- | --- |
| A204_SOFT_TISSUE | 4.24 | 0.163 |
| A253_SALIVARY_GLAND | 4.12 | 0.197 |
| A375_SKIN | 9.23 | 0.016 |
| A388_SKIN | > 10 | 0.0151 |
| A427_LUNG | 0.735 | 0.349 |
| A498_KIDNEY | 5.88 | 0.113 |
| A549_LUNG | 2.17 | 0.207 |
| A673_BONE | 9.04 | 0.0226 |
| A704_KIDNEY | 9.08 | 0.0519 |
| A1207_CENTRAL_NERVOUS_SYSTEM | 7.21 | 0.179 |
| A2058_SKIN | 5.91 | 0.0892 |
| A2780_OVARY | 5.15 | 0.103 |
| ABC1_LUNG | 7.12 | 0.0666 |
| ACCMESO1_PLEURA | 9.66 | 0.00668 |
| ACHN_KIDNEY | 6.46 | 0.133 |
| AGS_STOMACH | 0.844 | 0.313 |
| ALLSIL_HAEMATOPOIETIC_AND_LYMPHOID_TISSUE | 9.13 | 0.033 |
| AM38_CENTRAL_NERVOUS_SYSTEM | 4.3 | 0.101 |
| AMO1_HAEMATOPOIETIC_AND_LYMPHOID_TISSUE | 5.6 | 0.088 |
| AN3CA_ENDOMETRIUM | 4.74 | 0.142 |
| ANGMCSS_CENTRAL_NERVOUS_SYSTEM | > 10 | 0.0225 |
| ASPC1_PANCREAS | 2.11 | 0.32 |
| AU565_BREAST | 6.01 | 0.0935 |
| BC3C_URINARY_TRACT | 5.1 | 0.193 |

| Test System | IC50 of cell viability (BI-2493 [1]) [µM] | 1 - AUC of viability dose-response curve (BI-2493 [2]) |
| --- | --- | --- |
| BCPAP_THYROID | 6.5 | 0.0703 |
| BDCM_HAEMATOPOIETIC_AND_LYMPHOID_TISSUE | > 10 | 0.0903 |
| BECKER_CENTRAL_NERVOUS_SYSTEM | 9.55 | 0.00973 |
| BEN_LUNG | 1.62 | 0.264 |
| BFTC905_URINARY_TRACT | 6.41 | 0.114 |
| BFTC909_KIDNEY | 6.33 | 0.0855 |
| BHT101_THYROID | 7.97 | 0.0404 |
| BHY_UPPER_AERODIGESTIVE_TRACT | 5.93 | 0.0642 |
| BICR6_UPPER_AERODIGESTIVE_TRACT | 4 | 0.178 |
| BICR16_UPPER_AERODIGESTIVE_TRACT | 5.24 | 0.263 |
| BICR18_UPPER_AERODIGESTIVE_TRACT | 4.16 | 0.147 |
| BICR22_UPPER_AERODIGESTIVE_TRACT | 4.66 | 0.137 |
| BICR31_UPPER_AERODIGESTIVE_TRACT | 6.97 | 0.0764 |
| BICR56_UPPER_AERODIGESTIVE_TRACT | 4.72 | 0.152 |
| BICR78_UPPER_AERODIGESTIVE_TRACT | 5.51 | 0.173 |
| BL2_HAEMATOPOIETIC_AND_LYMPHOID_TISSUE | 4.45 | 0.183 |
| BLUE1_HAEMATOPOIETIC_AND_LYMPHOID_TISSUE | 3.33 | 0.129 |
| BOKU_CERVIX | > 10 | 0.119 |
| BONNA12_HAEMATOPOIETIC_AND_LYMPHOID_TISSUE | > 10 | 0.117 |
| BT12_SOFT_TISSUE | 5.51 | 0.17 |
| BT16_SOFT_TISSUE | > 10 | 0.189 |
| BT474_BREAST | 9.18 | 0.0542 |
| BT549_BREAST | 8.89 | 0.0828 |
| BV173_HAEMATOPOIETIC_AND_LYMPHOID_TISSUE | 1.67 | 0.344 |
